Results taken from patent US20190343860A1 (Saint Louis University, priority 2016, published 2019).

Key:
[1] = Oxaliplatin-induced mechano-hypersensitivity (paw withdrawal threshold, von Frey); type: in vivo, rat; settings: 0.1 mg/kg/d i.p. concomitant with oxaliplatin
From the text: Mean±SEM, n=6/group, ANOVA with Bonferroni comparisons. *P<0.05 vs. day 0; #P<0.05 vs. vehicle &†P<0.05 vs. Oxaliplatin.

[2] = system: mitochondria in peripheral sensory afferents (PNSAs); test: Mitochondrial ATP production in peripheral sensory afferents after in vivo treatment; set-up: species or system rat; settings: 0.1 mg/kg/d i.p. concomitant with oxaliplatin
Method: ATP assays. Saphenous nerves were harvested from rats 25 days after the initiation of chemotherapy treatments, then minced & teased apart as previously described. Saphenous nerve explants were transferred to MiR05 respiratory buffer & baseline ATP samples were taken after 5 min or after 15 min treatment with MRS5980 or vehicle. ADP (1 mM), glutamate (5 mM), succinate (5 mM), maleate (5 mM) were added for 5 min & samples were taken for ATP. ATP levels were measured by a flash luciferin-luciferase assay (Promega Enliten ATP Assay; Promega, Madison, Wis.) & normalized to citrate synthase activity (Sigma, St Louis, Mo.) in explants homogenates.

[3] = system: intraepidermal nerve fibers (IENFs); test: Incidence of intraepidermal nerve fibers (IENFs) in chemotherapy-treated rats; settings: p<0.05

## CNC(=O)[C@@]12C[C@@H]1[C@@H](n1cnc3c(NCc4cccc(Cl)c4)nc(C#Cc4ccc(F)c(F)c4)nc31)[C@H](O)[C@@H]2O [MRS5698]
[1]
  Development of mechano-hypersensitivity (Paw Withdrawal Threshold): prevents
[2]
  Mitochondrial ATP production in PNSAs: prevents the deficiencies in mitochondrial ATP production
[3]; rats treated with oxaliplatin+MRS5698
  Incidence of IENFs vs. oxaliplatin alone: significantly more IENFs
[3]; rats treated with paclitaxel+MRS5698
  Incidence of IENFs vs. paclitaxel alone: significantly more IENFs
